# Read-outs that look alike come from different tables or passages of the source.
# How the values were obtained:
# HCV replicon cells = assay: HCV replicon FRET assay; assay type: cell-based; settings: Hepatitis C virus
# Excerpt: FRET Assay Preparation. To perform the HCV FRET screening assay, 96-well cell culture plates were used. The FRET peptide (Anaspec, Inc.) (Taliani et al., Anal. Biochem. 1996, 240, 60-67) contains a fluorescence donor, EDANS, near one end of the peptide and an acceptor, DABCYL, near the other end. The fluorescence of the peptide is quenched by […] resonance energy transfer (RET) between the donor and the acceptor, but as the NS3 protease cleaves the peptide the products are released from RET quenching and the fluorescence of the donor becomes apparent. The assay reagent was made as follows: 5× cell Luciferase cell culture lysis reagent from Promega (#E153A) diluted to 1× with dH2O, NaCl added to 150 mM final, the FRET peptide diluted to 20 uM final from a 2 mM stock.
# To prepare plates, HCV replicon cells, with or without a Renilla luciferase reporter gene, were trypsinized and placed into each well of a 96-well plate with titrated test compounds added in columns 3 through 12; columns 1 and 2 contained a control compound (HCV protease inhibitor), and the bottom row contained cells without compound. The plates were then placed in a CO2 incubator at 37° C.
# Assays. Subsequent to addition of the test compounds described above (FRET Assay Preparation), at various times the plate was removed and Alamar blue solution (Trek Diagnostics, #00-100) was added per well as a measure of cellular toxicity. After reading in a Cytoflour 4000 instrument (PE Biosystems), plates were rinsed with PBS and then used for FRET assay by the addition of 30 ul of the FRET peptide assay reagent described above (FRET Assay Preparation) per well. The plate was then placed into the Cytoflour 4000 instrument which had been set to 340 excite/490 emission, automatic mode for 20 cycles and the plate read in a kinetic mode. Typically, the signal to noise using an endpoint analysis after the reads was at least three-fold. Alternatively, after Alamar blue reading, plates were rinsed with PBS, 50 ul of DMEM (high glucose) without phenol red was added and plates were then used for luciferase assay using the Promega Dual-Glo Luciferase Assay System.
# Compound analysis was determined by quantification of the relative HCV replicon inhibition and the relative cytotoxicity values. To calculate cytoxicity values, the average Alamar Blue fluorescence signals from the control wells were set as 100% non-toxic. The individual signals in each of the compound test wells were then divided by the average control signal and multiplied by 100% to determine […]. To calculate the HCV replicon inhibition values, an average background value was obtained from the two wells containing the highest amount of HCV protease inhibitor at the end of the assay period. These numbers were similar to those obtained from naïve Huh-7 cells.
# The background numbers were then subtracted from the average signal obtained from the control wells and this number was used as 100% activity. The individual signals in each of the compound test wells were then divided by the averaged control values after background subtraction and multiplied by 100% to determine percent activity. EC50 values for a protease inhibitor titration were calculated as the concentration which caused a 50% reduction in FRET or luciferase activity. The two numbers generated for the compound plate, percent cytoxicity and percent activity were used to determine compounds of interest for further analysis.
# HCV = HCV patients, combination therapy; cited from earlier work
# [1] = HCV replicon cells, FRET assay, read-out: EC50
Compound,EC50 (HCV replicon cells; [1]),other results
COC(=O)c1ccc2c(C3CCCCC3)c3n(c2c1)CC1(C(=O)N2CCOCC2)CC1c1ccccc1-3 (centres unmarked),20 to 1000 nM,–
O=C(O)c1ccc2c(C3CCCCC3)c3n(c2c1)CC1(C(=O)N2CCOCC2)CC1c1ccccc1-3 (centres unmarked),–,EC50 (HCV replicon cells): 20 to 1000 nM
CN(C)S(=O)(=O)NC(=O)c1ccc2c(C3CCCCC3)c3n(c2c1)CC1(C(=O)N2CCOCC2)CC1c1ccccc1-3 (centres unmarked),–,EC50 (HCV replicon cells): 20 to 1000 nM
COc1ccc2c(c1)C1CC1(C(=O)N1CCOCC1)Cn1c-2c(C2CCCCC2)c2ccc(C(=O)O)cc21 (centres unmarked),20 to 1000 nM,–
COC(=O)c1ccc2c(C3CCCCC3)c3n(c2c1)CC1(C(=O)OC)CC1c1cc(OC)ccc1-3 (centres unmarked),–,EC50 (HCV replicon cells): 20 to 1000 nM
COc1ccc2c(c1)C1CC1(C(=O)N1C[C@@H](C)O[C@@H](C)C1)Cn1c-2c(C2CCCCC2)c2ccc(C(=O)O)cc21 (some centres unmarked),20 to 1000 nM,–
COc1ccc2c(c1)C1CC1(C(=O)N1C[C@@H](C)O[C@@H](C)C1)Cn1c-2c(C2CCCCC2)c2ccc(C(=O)NS(=O)(=O)N(C)C)cc21 (some centres unmarked),–,EC50 (HCV replicon cells): 20 to 1000 nM
CCN(CC)C1CCN(C(=O)C23CC2c2cc(OC)ccc2-c2c(C4CCCCC4)c4ccc(C(=O)NS(=O)(=O)N(C)C)cc4n2C3)CC1 (centres unmarked),20 to 1000 nM,–
COc1ccc2c(c1)C1CC1(C(=O)N1CCOC(CN(C)C)C1)Cn1c-2c(C2CCCCC2)c2ccc(C(=O)NS(=O)(=O)C3CC3)cc21 (centres unmarked),20 to 1000 nM,–
COc1ccc2c(c1)C1CC1(C(=O)N1CCC(N3CCOCC3)CC1)Cn1c-2c(C2CCCCC2)c2ccc(C(=O)NS(=O)(=O)C3CC3)cc21 (centres unmarked),20 to 1000 nM,–
COC(=O)C12CC1c1cc(OC)ccc1-c1c(C3CCCCC3)c3ccc(C(=O)O)cc3n1C2 (centres unmarked),–,EC50 (HCV replicon cells): 1000 to 10000 nM
COC(=O)C12CC1c1cc(OC)ccc1-c1c(C3CCCCC3)c3ccc(C(=O)OC(C)(C)C)cc3n1C2 (centres unmarked),> 10000 nM,–
COc1ccc2c(c1)C1C[C@]1(C(=O)O)Cn1c-2c(C2CCCCC2)c2ccc(C(=O)NS(=O)(=O)N(C)C)cc21 (some centres unmarked),1000 to 10000 nM,–
COc1ccc2c(c1)C1CC1(C(=O)N1CCOCC1)Cn1c-2c(C2CCCCC2)c2ccc(C(=O)NS(=O)(=O)N3CCN(C)CC3)cc21 (centres unmarked),20 to 1000 nM,–
COc1ccc2c(c1)C1CC1(C(=O)N1CCOCC1)Cn1c-2c(C2CCCCC2)c2ccc(C(=O)NS(=O)(=O)N3CCOCC3)cc21 (centres unmarked),20 to 1000 nM,–
COc1ccc2c(c1)C1CC1(C(=O)N1CCOCC1)Cn1c-2c(C2CCCCC2)c2ccc(C(=O)NS(=O)(=O)C3CC3)cc21 (centres unmarked),20 to 1000 nM,–
COc1ccc2c(c1)C1CC1(C(=O)N1C[C@@H](C)N[C@@H](C)C1)Cn1c-2c(C2CCCCC2)c2ccc(C(=O)NS(=O)(=O)N(C)C)cc21 (some centres unmarked),–,EC50 (HCV replicon cells): 20 to 1000 nM
COc1ccc2c(c1)C1CC1(C(=O)N(C)C)Cn1c-2c(C2CCCCC2)c2ccc(C(=O)NS(=O)(=O)N(C)C)cc21 (centres unmarked),20 to 1000 nM,–
CC(C)c1ccc2c(c1)C1CC1(C(=O)N1CCOCC1)Cn1c-2c(C2CCCCC2)c2ccc(C(=O)O)cc21 (centres unmarked),20 to 1000 nM,–
COC(=O)C12CC1c1cc(O)ccc1-c1c(C3CCCCC3)c3ccc(C(=O)NS(=O)(=O)N(C)C)cc3n1C2 (centres unmarked),20 to 1000 nM,–
Cc1ccc2c(c1)C1CC1(C(=O)N1CCOCC1)Cn1c-2c(C2CCCCC2)c2ccc(C(=O)O)cc21 (centres unmarked),20 to 1000 nM,–
CCc1ccc2c(c1)C1CC1(C(=O)N1CCOCC1)Cn1c-2c(C2CCCCC2)c2ccc(C(=O)NS(=O)(=O)N(C)C)cc21 (centres unmarked),20 to 1000 nM,–
CCc1ccc2c(c1)C1CC1(C(=O)N1CCOCC1)Cn1c-2c(C2CCCCC2)c2ccc(C(=O)O)cc21 (centres unmarked),20 to 1000 nM,–
CC(C)Oc1ccc2c(c1)C1CC1(C(=O)N1CCOCC1)Cn1c-2c(C2CCCCC2)c2ccc(C(=O)NS(=O)(=O)N(C)C)cc21 (centres unmarked),20 to 1000 nM,–
C=Cc1ccc2c(c1)C1CC1(C(=O)N1CCOCC1)Cn1c-2c(C2CCCCC2)c2ccc(C(=O)O)cc21 (centres unmarked),20 to 1000 nM,–

Compound,EC50 (HCV replicon cells; [1]),other results
CCOc1ccc2c(c1)C1CC1(C(=O)N1CCOCC1)Cn1c-2c(C2CCCCC2)c2ccc(C(=O)NS(=O)(=O)N(C)C)cc21 (centres unmarked),20 to 1000 nM,–
CN(C)S(=O)(=O)NC(=O)c1ccc2c(C3CCCCC3)c3n(c2c1)CC1(C(=O)N2CCOCC2)CC1c1cc(O)ccc1-3 (centres unmarked),20 to 1000 nM,–
CC(C)Oc1ccc2c(c1)C1CC1(C(=O)N1CCOCC1)Cn1c-2c(C2CCCCC2)c2ccc(C(=O)O)cc21 (centres unmarked),20 to 1000 nM,–
CCOc1ccc2c(c1)C1CC1(C(=O)N1CCOCC1)Cn1c-2c(C2CCCCC2)c2ccc(C(=O)O)cc21 (centres unmarked),20 to 1000 nM,–
COC(=O)c1ccc2c(C3CCCCC3)c3n(c2c1)CC1(C(=O)N2CCOCC2)CC1c1cc(OC(C)C)ccc1-3 (centres unmarked),20 to 1000 nM,–
COc1ccc2c(c1)C1CC1(C(=O)N1CCOCC1)Cn1c-2c(C2CCCCC2)c2ccc(C(=O)NS(=O)(=O)N(C)C)cc21 (centres unmarked),–,EC50 (HCV replicon cells): 20 to 1000 nM
COc1ccc2c(c1)C1CC1(C(=O)N1CCC(N3CCOCC3)CC1)Cn1c-2c(C2CCCCC2)c2ccc(C(=O)O)cc21 (centres unmarked),20 to 1000 nM,–
CCN(CC)C(=O)CN(C)C(=O)C12CC1c1cc(OC)ccc1-c1c(C3CCCCC3)c3ccc(C(=O)NS(=O)(=O)N(C)C)cc3n1C2 (centres unmarked),20 to 1000 nM,–
C[C@@H]1CN(C(=O)C23CC2c2cc(OCc4ccccc4)ccc2-c2c(C4CCCCC4)c4ccc(C(=O)NS(=O)(=O)N(C)C)cc4n2C3)C[C@H](C)O1 (some centres unmarked),20 to 1000 nM,–
C[C@@H]1CN(C(=O)C23CC2c2cc(O)ccc2-c2c(C4CCCCC4)c4ccc(C(=O)NS(=O)(=O)N(C)C)cc4n2C3)C[C@H](C)O1 (some centres unmarked),20 to 1000 nM,–
COC[C@H]1CN(C(=O)C23CC2c2cc(OC)ccc2-c2c(C4CCCCC4)c4ccc(C(=O)NS(=O)(=O)N(C)C)cc4n2C3)CCO1 (some centres unmarked),–,EC50 (HCV replicon cells): 20 to 1000 nM
COC[C@@H]1CN(C(=O)C23CC2c2cc(OC)ccc2-c2c(C4CCCCC4)c4ccc(C(=O)NS(=O)(=O)N(C)C)cc4n2C3)CCO1 (some centres unmarked) [listing 1 of 2 here],–,EC50 (HCV replicon cells): 20 to 1000 nM
COc1ccc2c(c1)C1C[C@]1(C(=O)N[C@@H]1C3CCC(C)([C@@H]1O)C3(C)C)Cn1c-2c(C2CCCCC2)c2ccc(C(=O)NS(=O)(=O)N(C)C)cc21 (some centres unmarked),20 to 1000 nM,–
COc1ccc2c(c1OCc1ccccc1)C1CC1(C(=O)O)Cn1c-2c(C2CCCCC2)c2ccc(C(=O)NS(=O)(=O)N(C)C)cc21 (centres unmarked),> 1000 nM,–
CCN(C)CCN(C)C(=O)C12CC1c1cc(OC)ccc1-c1c(C3CCCCC3)c3ccc(C(=O)NS(=O)(=O)N(C)C)cc3n1C2 (centres unmarked),97 to 1000 nM,–
COC[C@@H]1CN(C(=O)C23CC2c2cc(OC)ccc2-c2c(C4CCCCC4)c4ccc(C(=O)NS(=O)(=O)N(C)C)cc4n2C3)CCO1 (some centres unmarked) [listing 2 of 2 here],–,EC50 (HCV replicon cells): 97 to 1000 nM
COc1ccc2c(c1)[C@@H]1C[C@]1(C(=O)N1CCCC[C@H]1CN(C)C)Cn1c-2c(C2CCCCC2)c2ccc(C(=O)NS(=O)(=O)N(C)C)cc21,97 to 1000 nM,–
COc1ccc2c(c1)[C@@H]1C[C@]1(C(=O)N1CCCC[C@@H]1CN(C)C)Cn1c-2c(C2CCCCC2)c2ccc(C(=O)NS(=O)(=O)N(C)C)cc21,97 to 1000 nM,–
COc1ccc2c(c1)C1CC1(C(=O)N1C[C@@H](C)O[C@@H](C)C1)Cn1c-2c(C2CCCCC2)c2ccc(C(=O)NS(C)(=O)=O)cc21 (some centres unmarked),97 to 1000 nM,–
"O=C(O)c1ccc2c(C3CCCCC3)c3n(c2c1)C[C@@]1(C(=O)N2CCOCC2)C[C@H]1c1ccccc1-3 (single isomer, unassigned)",–,EC50 (HCV replicon cells): 20 to 1000 nM
"O=C(O)c1ccc2c(C3CCCCC3)c3n(c2c1)C[C@]1(C(=O)N2CCOCC2)C[C@@H]1c1ccccc1-3 (single isomer, unassigned)",–,EC50 (HCV replicon cells): 20 to 1000 nM
"CN(C)S(=O)(=O)NC(=O)c1ccc2c(C3CCCCC3)c3n(c2c1)C[C@@]1(C(=O)N2CCOCC2)C[C@H]1c1ccccc1-3 (single isomer, unassigned)",–,EC50 (HCV replicon cells): 20 to 1000 nM
"CN(C)S(=O)(=O)NC(=O)c1ccc2c(C3CCCCC3)c3n(c2c1)C[C@]1(C(=O)N2CCOCC2)C[C@@H]1c1ccccc1-3 (single isomer, unassigned)",–,EC50 (HCV replicon cells): 20 to 1000 nM
"COc1ccc2c(c1)C1C[C@@]1(C(=O)O)Cn1c-2c(C2CCCCC2)c2ccc(C(=O)NS(=O)(=O)N(C)C)cc21 (single isomer, unassigned)",1000 to 10000 nM,–
alpha-interferon and ribavirin,–,sustained efficacy (HCV): 40 % of patients

# Reference: patent US7485633B2, “Cyclopropyl fused indolobenzazepine HCV NS5B inhibitors” (Bristol-Myers Squibb Company, priority 2005, dated 2009)
